Experiments:
Assay type in all cases: in vivo
Septoria tritici = assay: Test A: wheat leaf blotch, preventive spray on wheat seedlings; conditions: 100 = 100% disease control, 0 = no control relative to controls; for pest or weed control at 50 ppm / Test A disease control rating (wheat leaf blotch): 50 ppm
Method in brief: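 Preventive test: seedlings sprayed to run-off one day before Septoria tritici spore inoculation, with ppm doses in acetone/water containing 250 ppm PEG400. After 48 h at 24 °C in saturated air and 17 days at 20 °C, plants were scored 0–100 for disease control versus untreated controls.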

Alternaria solani = assay: Test F: tomato early blight, preventive spray on tomato seedlings; conditions: 100 = 100% disease control, 0 = no control; for pest or weed control at 50 ppm / Test F disease control rating (tomato early blight): 50 ppm
Method in brief: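 Preventive test: one day after seedlings were sprayed to run-off with ppm-level suspensions (acetone/water 50/50, 250 ppm PEG400), A. solani spore inoculation followed. Incubation was 48 h at 27° C in saturated air plus 3 days at 20° C; disease control was scored visually versus controls (100 = full control).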

Phakopsora pachyrhizi = assay: Test D: Asian soybean rust, preventive spray on soybean seedlings; conditions: 100 = 100% disease control, 0 = no control; for pest or weed control at 50 ppm / Test D disease control rating (Asian soybean rust): 50 ppm
Method in brief: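 Soybean seedlings sprayed to run-off with compound suspension (ppm, in 50/50 acetone/water with 250 ppm PEG400), inoculated next day with P. pachyrhizi spores, held 24 h saturated at 22°C then 8 days at 22°C. Visual rating 0-100% disease control relative to controls.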

[1] = system: Puccinia recondita f. sp. tritici; assay: Test B: wheat leaf rust, preventive spray on wheat seedlings; conditions: 100 = 100% disease control, 0 = no control relative to controls; for pest or weed control at 50 ppm / Test B disease control rating (wheat leaf rust): 50 ppm
Method in brief: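 Wheat seedlings got a run-off spray (ppm, acetone/water 50/50, 250 ppm PEG400) and one day later a spore inoculum. After 24 h at 20° C. in saturated air and 7 days at 20° C., disease was scored as % control relative to controls (100 = full control).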

Botrytis cinerea = assay: Test E: tomato Botrytis, preventive spray on tomato seedlings; conditions: 100 = 100% disease control, 0 = no control; for pest or weed control at 50 ppm / Test E disease control rating (tomato Botrytis): 50 ppm
Method in brief: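 Preventive test: spore inoculation one day after run-off spraying of compound suspension (3% acetone, acetone/water 50/50, 250 ppm PEG400). Incubation 20 °C saturated humidity for 48 h, followed by 3 days at 24 °C growth chamber; disease control scored visually, 100 = full control.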

[2] = system: Blumeria graminis f. sp. tritici; assay: Test C: wheat powdery mildew, preventive spray on wheat seedlings; conditions: rated after 8 days, 100 = 100% disease control, 0 = no control; for pest or weed control at 50 ppm / Test C disease control rating (wheat powdery mildew): 50 ppm
Method in brief: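 Wheat seedlings got a run-off spray of test suspension (ppm in acetone/water 50/50, 250 ppm PEG400, acetone 3% of volume), then spore-dust inoculation with wheat powdery mildew one day later. After 8 days' growth-chamber incubation at 20° C, disease control scored visually on a 0–100 scale versus untreated controls.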

[3] = Zymoseptoria tritici, read-out: Test A disease control rating (wheat leaf blotch)
[4] = Alternaria solani, read-out: Test F disease control rating (tomato early blight)
[5] = Phakopsora pachyrhizi, read-out: Test D disease control rating (Asian soybean rust)
[6] = read-out: Test B disease control rating (wheat leaf rust)
[7] = Botrytis cinerea, read-out: Test E disease control rating (tomato Botrytis)
[8] = Blumeria graminis, 192 h, read-out: Test C disease control rating (wheat powdery mildew)

SMILES	pest or weed control at 10 ppm (Septoria tritici; Zymoseptoria tritici, 10 ppm, read-out: Test A disease control rating (wheat leaf blotch))	pest or weed control at 50 ppm (Septoria tritici; [3])	pest or weed control at 10 ppm (Alternaria solani; Alternaria solani, 10 ppm, read-out: Test F disease control rating (tomato early blight))	pest or weed control at 50 ppm (Alternaria solani; [4])	pest or weed control at 10 ppm (Phakopsora pachyrhizi; Phakopsora pachyrhizi, 10 ppm, read-out: Test D disease control rating (Asian soybean rust))	pest or weed control at 50 ppm (Phakopsora pachyrhizi; [5])	pest or weed control at 10 ppm ([1]; 10 ppm, read-out: Test B disease control rating (wheat leaf rust))	pest or weed control at 50 ppm [1, 6]	pest or weed control at 10 ppm (Botrytis cinerea; Botrytis cinerea, 10 ppm, read-out: Test E disease control rating (tomato Botrytis))	pest or weed control at 50 ppm (Botrytis cinerea; [7])	pest or weed control at 10 ppm ([2]; Blumeria graminis, 192 h, 10 ppm, read-out: Test C disease control rating (wheat powdery mildew))	pest or weed control at 50 ppm [2, 8]	Test A disease control rating (wheat leaf blotch) (Septoria tritici)	Test F disease control rating (tomato early blight) (Alternaria solani)	Test D disease control rating (Asian soybean rust) (Phakopsora pachyrhizi)	Test B disease control rating (wheat leaf rust) [1]	Test E disease control rating (tomato Botrytis) (Botrytis cinerea)	Test C disease control rating (wheat powdery mildew) [2]
CCc1nn(C)c(Nc2c(F)cccc2[N+](=O)[O-])c1-c1ccc(F)cc1Cl [Compound 72, 4-(2-chloro-4-fluorophenyl)-N-(2-fluoro-6-nitrophenyl)-3-ethyl-1-methyl-1H-pyrazol-5-amine]	100%	100%	63%	99%	12%	31%	85%	100%	98%	98%	81%	99%						
COc1ccc(-c2c(C)nn(C)c2Nc2c(Cl)cc(F)cc2[N+](=O)[O-])c(Cl)c1 [Compound 73, N-(2-chloro-4-fluoro-6-nitrophenyl)-4-(2-chloro-4-methoxyphenyl)-1,3-dimethyl-1H-pyrazol-5-amine]		100%		97%		98%		100%		99%		96%						
COc1ccc(-c2c(C)nn(C)c2Nc2ccc(Cl)cc2[N+](=O)[O-])c(Cl)c1 [Compound 74]													99%	85%	74%	86%	99%	81%
Cc1nn(C)c(Nc2c(F)cc(F)cc2[N+](=O)[O-])c1-c1c(F)cccc1F [Compound 75]													100%	98%	0%	99%	57%	90%
Cc1nn(C)c(Nc2c(Cl)cc(F)cc2[N+](=O)[O-])c1-c1c(F)cccc1F [Compound 76]													100%	0%	25%	99%	87%	95%
Cc1nn(C)c(Nc2c(Cl)cccc2[N+](=O)[O-])c1-c1c(F)cccc1F [Compound 77]													100%	9%	73%	100%	72%	95%
Cc1nn(C)c(Nc2ccc(Cl)cc2[N+](=O)[O-])c1-c1ccc(F)cc1F [Compound 78]													100%	0%	0%	89%	68%	95%
Cc1nn(C)c(Nc2c(Cl)cccc2[N+](=O)[O-])c1-c1ccc(F)cc1F [Compound 79]													100%	0%	44%	100%	98%	91%
COc1cc(Cl)c(Nc2c(-c3ccc(F)cc3Cl)c(C)nn2C)c([N+](=O)[O-])c1 [Compound 80]													100%	98%	50%	100%	95%	97%
COc1ccc(-c2c(C)nn(C)c2Nc2c(F)cc(Cl)cc2[N+](=O)[O-])c(Cl)c1 [Compound 81]													100%	99%	0%	99%	95%	89%
COc1cc(F)c(-c2c(C)nn(C)c2Nc2c(Cl)cc(Cl)cc2[N+](=O)[O-])c(F)c1 [Compound 82]													100%	97%	59%	100%	96%	58%
COc1cc(F)c(-c2c(C)nn(C)c2Nc2ccc(F)cc2[N+](=O)[O-])c(F)c1 [Compound 83]													99%	99%	0%	91%	98%	99%
COc1cc(F)c(-c2c(C)nn(C)c2Nc2c(F)cc(F)cc2[N+](=O)[O-])c(F)c1 [Compound 84]													100%	99%	48%	100%	90%	99%
COc1cc(F)c(Nc2c(-c3ccc(F)cc3Cl)c(C)nn2C)c([N+](=O)[O-])c1 [Compound 85]													100%	98%	96%	100%	94%	97%
COc1cc(F)c(-c2c(C)nn(C)c2Nc2c(F)cc(Cl)cc2[N+](=O)[O-])c(F)c1 [Compound 86]													100%	99%	77%	100%	96%	98%
Cc1ccc(Nc2c(-c3ccc(F)cc3Br)c(C)nn2C)c([N+](=O)[O-])c1 [Compound 90]													100%	9%	0%	95%	99%	87%
Cc1nn(C)c(Nc2ccc(Br)cc2[N+](=O)[O-])c1-c1ccc(F)cc1Cl [Compound 91]													99%	26%	0%	88%	99%	84%
Cc1nn(C)c(Nc2ccc(Cl)cc2[N+](=O)[O-])c1-c1ccc(F)cc1Cl [Compound 92]													100%	79%	0%	96%	100%	89%
